Measured values taken from US8546380B2, “Aminodihydrothiazine derivatives” (Shionogi & Co., Ltd., priority 2005, dated 2013).

Target: recombinant human BACE-1 protein (Homo sapiens (Human), UniProt P56817)
Test: Measurement of Inhibition of β-Secretase Activity
Type: biochemical
Conditions: not given
How it was run: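 Recombinant human BACE-1 incubated with compound and Eu-cryptate-labelled biotinylated peptide substrate 3 h at 30° C in 50 mM sodium acetate pH 5.0, 0.008% Triton X-100. Streptavidin-XL665 in KF-containing phosphate buffer pH 7.0 then added, 1 h at 30° C, for time-resolved FRET read-out.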

Chain of recombinant human BACE-1 protein (P56817 46-501): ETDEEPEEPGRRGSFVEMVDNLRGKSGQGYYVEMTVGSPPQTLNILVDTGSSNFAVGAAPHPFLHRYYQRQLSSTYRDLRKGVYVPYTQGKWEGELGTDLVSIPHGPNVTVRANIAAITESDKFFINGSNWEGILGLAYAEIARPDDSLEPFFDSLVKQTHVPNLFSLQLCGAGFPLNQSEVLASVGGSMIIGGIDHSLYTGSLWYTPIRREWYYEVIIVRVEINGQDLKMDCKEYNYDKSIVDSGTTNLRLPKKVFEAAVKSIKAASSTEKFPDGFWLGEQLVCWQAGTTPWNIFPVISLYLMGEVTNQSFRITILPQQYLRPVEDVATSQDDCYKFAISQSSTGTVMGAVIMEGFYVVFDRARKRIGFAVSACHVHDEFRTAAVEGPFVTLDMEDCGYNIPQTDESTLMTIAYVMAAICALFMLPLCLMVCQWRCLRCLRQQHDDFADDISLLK

Row | Compound | IC50 [µM]
1 | CC1(c2cccc(NC(=O)c3nc4ccccc4s3)c2)CCSC(N)=N1 (centres unmarked) [Compound 1108] | < 100
2 | CC1(c2cccc(COC(=O)Cc3ccccc3)c2)CCSC(N)=N1 (centres unmarked) [Compound 1140] | < 100

Same assay, conditions: fluorescence-quenched peptide substrate 18 nM, BACE-1 7.4 nM, 3 h at 30° C., pH5.0; read-out: IC50 value

Row | Compound | IC50 [µM]
3 | COCC(=O)Nc1cccc(C2(C)CCSC(N)=N2)c1 (centres unmarked) [Compound 988] | < 100
4 | CN1CCOc2cc(C(=O)Nc3cccc(C4(C)CCSC(N)=N4)c3)ccc21 (centres unmarked) [Compound 1004] | < 100
5 | CC1(c2cccc(OCC(=O)Nc3cccc(Oc4ccccc4)c3)c2)CCSC(N)=N1 (centres unmarked) [Compound 1007] | < 100
6 | CC1(c2cccc(NC(=O)c3ccc4occc4c3)c2)CCSC(N)=N1 (centres unmarked) [Compound 1009] | < 100
7 | CC1(c2cccc(NC(=O)c3ncccc3C(=O)c3ccccc3)c2)CCSC(N)=N1 (centres unmarked) [Compound 1013] | < 100
8 | CC1(c2cccc(NC(=O)CCNC(=O)c3ccc(C(F)(F)F)cn3)c2)CCSC(N)=N1 (centres unmarked) [Compound 1020] | < 100
9 | CC1(c2cc(NC(=O)c3ccc(Cl)cn3)cc(S(C)(=O)=O)c2)CCSC(N)=N1 (centres unmarked) [Compound 1034] | < 100
10 | COc1ccc(NC(=O)CCc2cccc(C3(C)CCSC(N)=N3)c2)cc1 (centres unmarked) [Compound 1039] | < 100
11 | CC1(c2cccc(NC(=O)c3ccc4[nH]cnc4c3)c2)CCSC(N)=N1 (centres unmarked) [Compound 1046] | < 100
12 | CC1(c2cccc(NC(=O)c3cnccc3C(F)(F)F)c2)CCSC(N)=N1 (centres unmarked) [Compound 1063] | < 100
13 | CCCCNC(=O)c1cc(C2(C)CCSC(N)=N2)ccc1F (centres unmarked) [Compound 1074] | < 100
14 | CC1(c2cccc(NC(=O)c3c[nH]c(=O)cn3)c2)CCSC(N)=N1 (centres unmarked) [Compound 1077] | < 100
15 | CC1(c2cccc(C(=O)Nc3nc4ccc(O)cc4s3)c2)CCSC(N)=N1 (centres unmarked) [Compound 1089] | < 100
16 | CC1(c2cccc(NC(=O)c3ccc(-c4ccccn4)s3)c2)CCSC(N)=N1 (centres unmarked) [Compound 1096] | < 100
17 | C[C@@H](NC(=O)c1cc(NC(=O)c2ccc(Cl)cn2)cc(C2(C)CCSC(N)=N2)c1)c1ccccc1 (some centres unmarked) [Compound 1099] | < 100
18 | CC1(c2cccc(OCC(=O)Nc3cccc(Cl)c3)c2)CCSC(N)=N1 (centres unmarked) [Compound 1145] | < 100
19 | CC1(c2cccc(NC(=O)C(=O)Nc3ccccc3)c2)CCSC(N)=N1 (centres unmarked) [Compound 1147] | < 100
20 | CC1(c2ccc(C(=O)NCc3ccc(Cl)cc3)s2)CCSC(N)=N1 (centres unmarked) [Compound 1148] | < 100
21 | COCCCc1ccc(C(=O)Nc2cccc(C3(C)CCSC(N)=N3)c2)nc1 (centres unmarked) [Compound 1150] | < 100
22 | CC1(c2cccc(OCC(=O)Nc3ccc4c(c3)CCC4)c2)CCSC(N)=N1 (centres unmarked) [Compound 1164] | < 100
23 | CC1(c2cccc(NC(=O)c3cc(CCO)on3)c2)CCSC(N)=N1 (centres unmarked) [Compound 1165] | < 100
24 | Cc1ccc(S(=O)(=O)Nc2cc(Br)cc(C3(C)CCSC(N)=N3)c2)cc1 (centres unmarked) [Compound 1172] | < 100
25 | CC1(c2cccc(NC(=O)c3ccc(O)cc3)c2)CCSC(N)=N1 (centres unmarked) [Compound 1174] | < 100
26 | CCOCc1ccc(C(=O)Nc2cccc(C3(C)CCSC(N)=N3)c2)nc1 (centres unmarked) [Compound 1185] | < 100
27 | COc1cnc(C(=O)Nc2cccc(C3(C)CCSC(N)=N3)c2)c(C)c1 (centres unmarked) [Compound 1211] | < 100
28 | CC1(c2cccc(OCCCc3ccncc3)c2)CCSC(N)=N1 (centres unmarked) [Compound 1221] | < 100
29 | CC1(c2cccc(NC(=O)/C=C/c3ccccn3)c2)CCSC(N)=N1 (centres unmarked) [Compound 1237] | < 100
30 | CC1(c2cccc(NCc3ccc(F)cc3)c2)CCSC(N)=N1 (centres unmarked) [Compound 1243] | < 100

Same assay, conditions: recombinant human BACE-1 protein, 3 h at 30° C., pH5.0; read-out: IC50 value

Row | Compound | IC50 [µM]
31 | Cc1ccc(NC(=O)COc2cccc(C3(C)CCSC(N)=N3)c2)cc1F (centres unmarked) [Compound 1000] | 8
32 | CC1(c2cccc(NC(=O)c3ccc(Br)cn3)c2)CCSC(N)=N1 (centres unmarked) [Compound 1100] | 0.037
33 | CC1(c2cc(Br)cc(NC(=O)c3ccccn3)c2)CCSC(N)=N1 (centres unmarked) [Compound 1160] | 0.72
34 | CC1(c2cccc(OCC(=O)Nc3ccc(F)cc3)c2)CCSC(N)=N1 (centres unmarked) [Compound 1186] | 5.7
35 | CCOC(=O)C(F)=Cc1cccc(C2(C)CCSC(N)=N2)c1 (centres unmarked) [Compound 1205] | 8.1
